Legend:
[1] = system: coculture of keratinocytes and melanocytes; experiment: Modulatory effect on melanogenesis: inhibition of melanin synthesis (thiouracil/leucine incorporation ratio); format: cell-based; conditions: ratio of thiouracil to leucine incorporation related to 100% of control, read-out: IC50 (concentration for which 50% of the melanin synthesis is inhibited)
Description: The modulatory effect on melanogenesis of the compounds tested was measured according to the method described in patent FR-A-2734825, and also in the article by R. Schmidt, P. Krien and M. Regnier, Anal. Biochem., 235(2), 113-18, 1996. This test is carried out on a coculture of keratinocytes and melanocytes.
For the compound tested, the inhibitory activity on melanin synthesis was determined by estimating the ratio of thiouracil incorporation to leucine incorporation, related to 100% of the control (the control corresponds to the test carried out without compound to be tested). The IC50 values (concentration for which 50% of the melanin synthesis is inhibited) were determined.
The test was also carried out with arbutin and lucinol (2-butylbenzene-1,3-diol), which are known depigmenting compounds.

[2] = system: tyrosinase activity of the melanocytes of human skin; conditions: cited from earlier work

| IC50 [1] | SMILES | effect on the tyrosinase activity of the melanocytes of human skin [2] |
| --- | --- | --- |
| 209000 nM | OC[C@H]1O[C@@H](Oc2ccc(O)cc2)[C@H](O)[C@@H](O)[C@@H]1O [Arbutin] | – |
| 100 nM | CCCCCCCCCCCCCCCC(O)C(CO)NC(=O)C(O)CCCCCCCCCCCCCC (centres unmarked) [N-2-hydroxypalmitoyldihydrosphingosine] | – |
| – | CCCCCCCCCCCCC/C=C/[C@@H](O)[C@H](CO)NC(C)=O [N-acetyl-D-erythrosphingosine] | has an effect |
| 100 nM | CCCCCCCC/C=C\CCCCCCCC(=O)NC(CO)C(O)CCCCCCCCCCCCCCC (centres unmarked) [N-oleoyldihydrosphingosine] | – |
| – | CCCCCCCCCCCCC/C=C/[C@@H](O)[C@@H](N)COP(=O)(O)O [sphingosine-1-phosphate] | no effect |
